Laboratory results published in patent US7592326B2, “Method for stimulating the immune, inflammatory or neuroprotective response” (priority 2004, dated 2009).

Key:
basophils = test: SOCS expression in basophils (real-time PCR); type: cell-based, human
Protocol: Whether or not cyclic dinucleotides affected induction of SOCS (Suppresser Of Cytokine Synthesis) expression in basophils treated with CDN's was then tested. […] Cells were treated for 18 h, total RNA isolated, and RT-PCR performed for SOCS-1, SOCS-3, and the HPRT housekeeping gene. The fact that cGpGp also induces SOCS-1 may explain why some inhibition of IL-3-induced IL-13 secretion is observed with this cyclic dinucleotide analog. […] In the current IL-13 assay, the cyclic dinucleotide is added simultaneously with IL-3. The TBDMS-cGpGp likely induces SOCS-1 expression faster and thus accounts for greater inhibition of IL-13. […] While modest inhibitory activity with cGpGp was observed, evidence that cGpGp induces SOCS-1 and sometimes better than TBDMS-cGpGp at this particular time point was observed. These differences might be explained by kinetics and it may be that SOCS gene expression would be higher following TBDMS-cGpGp treatment when examined at an earlier time point.

P. carinii = type: in vivo, Pneumocystis carinii; conditions: C57BL/6 mice pretreated 48- and 24 h prior to infection
[1] = system: influenza virus A/Puerto Rico/8/34 (H1N1, PR8); conditions: in vivo
immature DCs = test: Surface phenotype of DCs exposed to c-di-GMP (flow cytometry); type: cell-based, human
Protocol: Peripheral blood mononuclear cells (PBMC) were isolated by Ficoll-Hypaque gradient separation of buffy coats obtained from healthy volunteer blood donors by the Transfusion Center of Università Degli Studi “La Sapienza” Rome. DCs were generated from monocytes purified from PBMC by positive selection using magnetic cell separation columns and CD14 Microbeads. Highly enriched monocytes (>95% CD14^+) were cultured at 6×10^5/ml in RPMI 1640 medium supplemented with 15% heat-inactivated fetal calf serum (FCS), L-glutamine and penicillin-streptomycin and 250 ng/ml granulocyte macrophage-colony stimulating factor (GM-CSF) and 500 U/ml interleukin (IL)-4 at 37° C. for 5 days. Differentiation to DC was assessed both by morphologic observation and the detection of specific surface markers by flow cytometry. These cells were CD14^−, CD1a^+, HLA-DR^intermediate, HLA-ABC^intermediate CD80^low, CD86^low consistent with an immature DC phenotype. Untreated immature DCs were used as controls. […] LPS-treated DCs became stimulated/activated and produced CD83^+, HLA-DR^high, HLA-ABC^high consistent with a mature DC phenotype. […] Experiments using trypan blue exclusion tests were always performed in order to exclude any aspecific toxicity of c-di-GMP. NaCl (0.9%) used to resuspend the compound was always included as control. Cell staining was performed using mouse monoclonal antibodies FITC- or PE-conjugate. The following mAbs were used: CD14 (IgG1, PE), CD1a (IgG1, FITC), HLA-DR (IgG2a, FITC), HLA-ABC (IgG1, FITC), CD80 (IgG1, FITC), CD86 (IgG1, FITC); CD83 (IgG2b, PE), CXCR4 (IgG2aPE), CCR5 (IgG2a, FITC), CD32 (IgG2b, FITC). CD40, CCR7 and mannose receptor (MR) staining was performed using mouse mAb followed by FITC-conjugated affinity purified, isotype-specific goat anti-mouse Abs. Samples were analyzed using a FACScan flow cytometer and CellQuest software (Becton Dickinson). To investigate whether c-di-GMP induced phenotypic differentiation of human DCs, immature and mature DCs were cultured with c-di-GMP for 24 h and then analyzed for surface molecule expression.

S. aureus strain NCH57 = test: Mouse S. aureus pneumonia (proposed); type: in vivo; conditions: 200 nmol 24- and 48 hours prior; 1×10^9 CFU NCH57

Nc1nc(=O)c2ncn([C@@H]3OC4COP(=O)(O)O[C@H]5[C@@H](O)[C@H](n6cnc7c(=O)nc(N)[nH]c76)O[C@@H]5COP(=O)(O)OC4C3O)c2[nH]1 (some centres unmarked) [c-di-GMP, Bis(3′→5′)-cyclic diguanylic acid]
time of SOCS mRNA peak (basophils): ~18 h
SOCS-1 mRNA (basophils; 18 h treatment): induced
survival (P. carinii): increased survival
outcome compared to control mice [1]: increased survival, less weight loss
effect in dose-response titration on DCs (immature DCs; 0.5 μM c-di-GMP): No effect
effect in dose-response titration on DCs (immature DCs; 200 μM c-di-GMP): inconsistent results
LPS-induced maturation (immature DCs; DCs with LPS, data not shown): did not interfere
surface expression of CD1a, HLA-ABC, CCR5 and CD40 (immature DCs; data not shown): did not affect
expression of chemokine receptor CXCR4 (immature DCs; immature DCs, 24 h, FIG. 1C): significantly increased
expression of chemokine receptor CCR7 (immature DCs; immature DCs, 24 h, FIG. 1D): significantly increased
expression of CD86 (B7-2) (percentage of positive cells) (immature DCs; immature DCs, 24 h, FIG. 1F): up-regulated
CD32 expression (immature DCs; immature DCs, 24 h, FIG. 1H): not affected
expression of CD83 (mean fluorescence) (immature DCs; immature DCs, 24 h, dose-dependent, no effect at high concentrations, FIG. 1B): slightly up-regulated
expression of CD80 (B7-1) (immature DCs; immature DCs, 24 h, dose-dependent, FIG. 1E): slightly increased
expression of mannose receptor (MR) (mean fluorescence) (immature DCs; immature DCs, 24 h, dose-dependent, FIG. 1G): reduced
expression of HLA-DR (MFI, percentage of positive cells) (immature DCs; immature DCs, c-di-GMP 5, 50, 100 μM, 24 h, FIG. 1A): up-regulated
survival (S. aureus strain NCH57): greater survival
